Tests used:
[1] = system: bone marrow stromal cells; experiment: Calcium incorporation (matrix mineralization) assay; assay type: cell-based, rat; conditions: 14 days in culture; vs untreated titanium
Procedure: Primary bone marrow stromal cells were harvested from the femora of young adult male Wistar rats in accordance with an IACUC-approved protocol. After excision, hindleg femora and tibiae were cleared of soft tissue and rinsed in growth medium (α-minimal essential medium supplemented with 10% fetal bovine serum, 1% penicillin-streptomycin, and 0.3 μg/ml amphotericin B). The ends of the long bones were then removed and the marrow space was flushed with culture medium (3-5 ml), using a syringe with an 18-gauge needle. Marrow isolates were pooled, centrifuged, resuspended in growth medium, and seeded for adhesion-dependent selection on tissue culture polystyrene dishes. Non-adherent hematopoietic cells were removed during subsequent medium exchanges, which occurred every other day. Cells were subcultured every two days according to standard techniques. For in vitro osteogenic assays, cells were seeded at 10,000 cells/cm^2 in growth medium. After 24 h, cultures were maintained in osteogenic medium consisting of growth medium supplemented with 50 μg/ml L-ascorbic acid and 3 mM sodium β-glycerophosphate.
Calcium content was determined by dissolving mineralized deposits with 1 N acetic acid overnight. […] The absorbance of the resulting samples was measured at 650 nm and compared to a linear standard curve of CaCl2 in 1 N acetic acid.

MC3T3-E1 cells = experiment: Cell proliferation rate by BrdU incorporation; assay type: cell-based, murine; conditions: vs RGD-tethered surfaces at low and high peptide surface densities
Procedure: Cells were seeded on surfaces in 10% serum for 16 h, and BrdU (3.1 μg/ml) was added for the last 4 h. After washing with DPBS, samples were fixed in 70% cold ethanol for 10 min, denatured in 4 M HC1 for 20 min, neutralized in 50 mM NaCl in 100 mM Tris-HCI (pH 7.4), washed, and blocked with 5% FBS+1% heat-denatured BSA. Cultures were incubated in anti-BrdU antibody (1:1000) and AlexaFluor488-conjugated anti-mouse IgG (1:200). Nuclei were counter-stained with Hoechst dye (1:10,000). Fluorescent images were used to quantify the number of cells positive for BrdU relative to total cell nuclei using an in-house image analysis routine. Ten representative fields were analyzed per well with multiple wells for each surface condition.

[2] = system: HFN7.1 monoclonal antibody; experiment: ELISA with HFN7.1 monoclonal antibody; assay type: binding; conditions: passively adsorbed ligands, various coating concentrations
Procedure: An ELISA was used to probe for the biological activity of the FNIII7-10 fragment compared to pFN. FNIII7-10 or pFN was adsorbed onto either uncoated or Neutravidin-coated (100 μg/ml) 96-well black U-well Dynex plates at various concentrations for 30 min. Following incubation in blocking buffer (0.25% BSA, 0.1 M EDTA, 2.5% Tween-20, 0.00125% NaN3), HFN7.1 antibody (0.6 μg/ml in blocking buffer) was added for 1 h at 37° C., and, after washing with blocking buffer, surfaces were incubated in alkaline phosphatase-conjugated anti-mouse IgG (0.6 μg/ml) for 1 h at 37° C. Washed surfaces were exposed to 4-methylumbelliferyl phosphate (25 mg/ml in 10 mM diethanolamine, pH 9.5). The resulting fluorescence was quantified using an HTS 7000 Plus plate reader (Perkin Elmer, Foster City, Calif.) at 360 nm excitation and 465 nm emission.

Substance | calcium-based mineral deposition [1] | cell proliferation rate (BrdU incorporation) (MC3T3-E1 cells) | HFN7.1 binding (biological activity) [2]
GGYGGGPC(GPP)5GFOGER(GPP)5GPC [GFOGER peptide] | three-fold enhancement | – | –
FNIII7-10: monobiotinylated recombinant fibronectin fragment spanning the 7-10th type III repeats of fibronectin; α5β1 integrin ligand | – | two-fold increase | equivalent functional activity
